Assay results from US4054659A, “5,7 Dihydroxy-1-(trimethoxybenzyl)-1,2,3,H-tetrahydroisoquinolines and use thereof” (Tanabe Seiyaku Co., Ltd., priority 1974, dated 1977).

Legend:
[1] = tested on: serotonin-creatinin sulfate-induced bronchoconstriction; experiment: Preventive effects against serotonin-creatinin sulfate-induced bronchoconstriction (bronchodilating activity) in anesthetized cats; assay type: in vivo; conditions: for Preventive effects against bronchoconstriction: cats, 10 μg/kg, duodenum
Text: The 5,7-dihydroxy-tetrahydroisoquinoline derivative (I) of the present invention or a pharmaceutically acceptable acid addition salt thereof has potent bronchodilating activity and is useful as a bronchodilator. Moreover, as compared with 6,7-dihydroxy-1-(3,4,5-trimethoxybenzyl)-1,2,3,4-tetrahydroisoquinoline, the 5,7-dihydroxy-tetrahydroisoquinoline derivative (I) of the present invention is more useful because of the longer duration of its point bronchodilating activity and/or lesser side effects (e.g., lesser increase of the heart rate). […] However, the bronchodilating activity of the former lasts for more than 3.5 hours at its maximum level, whereas the latter decreases to about 1/3 the maximum level after 3.5 hours.
(§1) Cats were anesthetized with sodium pentobarbital (40 mg/.kg, i.p.). Under artificial respiration (13 - 15 ml of air/kg/stroke, 30 strokes/minute) thereof, the cats were immobilized by intraveous injection of gallamine triethyodide (8 mg/kg). Serotonin.creatinin sulfate (=bronchoconstrictor) was injected intravenously to the cats at the dose of 20 μg/kg, and the intratracheal pressure was measured by means of a pressure transducer. Then, each one of test compounds was administered to the duodenum of the cats at the dose of 10 μg/kg, and the intratracheal pressure and the heart rate were measured with the passage of time. The bronchodilating activity was estimated by the preventive effects (%) of each test compound against bronchoconstriction.

heart rate = experiment: Increase of heart rate after duodenal administration in anesthetized cats; assay type: in vivo; conditions: 10 μg/kg, duodenum
Description: as §1

[2] = 50% lethal dose (LD50) by intravenous injection to mice; conditions: mouse, in vivo
Text: The toxicity of the 5,7-dihydroxytetrahydroisoquinoline derivative (I) of the present invention is considerably low.

[3] = 15 minutes after administration
[4] = 30 minutes after administration
[5] = 45 minutes after administration
[6] = 60 minutes after administration
[7] = 75 minutes after administration
[8] = 90 minutes after administration
[9] = 120 minutes after administration
[10] = 150 minutes after administration
[11] = 180 minutes after administration
[12] = 210 minutes after administration

SMILES	Preventive effects against bronchoconstriction ([1]; 5 minutes after administration)	Preventive effects against bronchoconstriction [1, 3]	Preventive effects against bronchoconstriction [1, 4]	Preventive effects against bronchoconstriction [1, 5]	Preventive effects against bronchoconstriction [1, 6]	Preventive effects against bronchoconstriction [1, 7]	Preventive effects against bronchoconstriction [1, 8]	Preventive effects against bronchoconstriction [1, 9]	Preventive effects against bronchoconstriction [1, 10]	Preventive effects against bronchoconstriction [1, 11]	Preventive effects against bronchoconstriction [1, 12]	also measured
COc1cc(CC2NCCc3cc(O)c(O)cc32)cc(OC)c1OC.Cl (stereo not shown) [B, 6,7-dihydroxy-1-(3,4,5-trimethoxybenzyl)-1,2,3,4-tetrahydroisoquinolin hydrochloride, reference compound]	21.1 ± 8.6%	71.2 ± 7.6%	77.6 ± 5.2%	73.9 ± 2.6%	67.2 ± 3.4%	62.3 ± 5.1%	54.7 ± 6.0%	45.5 ± 7.5%	38.0 ± 8.7%	31.6 ± 9.5%	26.0 ± 7.4%	Bronchodilating activity remaining after 3.5 hours, as fraction of the maximum level ([1]; after 3.5 hours, duodenal administration): about 1/3
COc1cc(CC2NCCc3c(O)cc(O)cc32)cc(OC)c1OC.Cl (stereo not shown) [A, 5,7-dihydroxy-1-(3,4,5-trimethoxybenzyl)-1,2,3,4-tetrahydroisoquinoline hydrochloride]	8.5 ± 3.2%	47.9 ± 8.5%	63.5 ± 9.9%	69.7 ± 8.7%	71.1 ± 7.1%	70.7 ± 6.8%	72.5 ± 6.1%	71.0 ± 5.6%	70.2 ± 6.4%	69.1 ± 5.7%	64.6 ± 7.4%	Increase of heart rate (Number of heart beats increased/minute) (heart rate; 5 minutes after administration): 1.3 ± 0.3 heart beats increased/minute; Increase of heart rate (Number of heart beats increased/minute) (heart rate; [3]): 10.6 ± 3.4 heart beats increased/minute; Increase of heart rate (Number of heart beats increased/minute) (heart rate; [4]): 22.2 ± 6.5 heart beats increased/minute; Increase of heart rate (Number of heart beats increased/minute) (heart rate; [5]): 21.3 ± 5.2 heart beats increased/minute; Increase of heart rate (Number of heart beats increased/minute) (heart rate; [6]): 20.0 ± 4.4 heart beats increased/minute; Increase of heart rate (Number of heart beats increased/minute) (heart rate; [7]): 18.7 ± 3.8 heart beats increased/minute; Increase of heart rate (Number of heart beats increased/minute) (heart rate; [8]): 17.8 ± 3.0 heart beats increased/minute; Increase of heart rate (Number of heart beats increased/minute) (heart rate; [9]): 17.2 ± 2.3 heart beats increased/minute; Increase of heart rate (Number of heart beats increased/minute) (heart rate; [10]): 15.2 ± 2.1 heart beats increased/minute; Increase of heart rate (Number of heart beats increased/minute) (heart rate; [11]): 13.7 ± 1.4 heart beats increased/minute; Increase of heart rate (Number of heart beats increased/minute) (heart rate; [12]): 12.0 ± 1.4 heart beats increased/minute; LD50 [2]: ~51 mg/kg; Duration of bronchodilating activity at its maximum level ([1]; after duodenal administration): more than 3.5 hours; Maximum preventive effects compared with 6,7-dihydroxy-1-(3,4,5-trimethoxybenzyl)-1,2,3,4-tetrahydroisoquinoline (hydrochloride) ([1]; duodenal administration): almost the same maximum preventive effects
